Series [1] concerns silverleaf whitefly (Bemisia argentifolii). Kind of series: Test Example 3: silverleaf whitefly on cabbage (foliar scattering). In kind it is in vivo. The settings on record: 168 h, 20 ml/cup on cabbage 8 days after egg laying, seven days after scattering, read-out: insecticidal rate. How it is done: A preparation prepared from each of the compounds (1), (2), (5), (6), (8), (9), (16), (77) and (78) of the present invention and the comparative compound (A) according to Formulation Example 5 was diluted with water so that the concentration of the compound of the present invention became 500 ppm to obtain a test scattering solution.
On the other hand, soil was filled in polyethylene cups, cabbage was planted in each cup, and grown until its first foliage leaves developed, and leaves other than a first foliage leaves were removed. About 200 imagoes of silverleaf whitefly (Bemisia argentifolii) were released on this cabbage for about 24 hours, and had them lay eggs on the cabbage first foliage leaf.
The thus obtained cabbage on which about 80 to 100 eggs of silverleaf whitefly (Bemisia argentifolii) were laid was allowed to stand in a greenhouse for 8 days, and the aforementioned test scattering solution was scattered at a ratio of 20 ml/cup. Seven days after scattering, the number of alive insects was examined, and an insecticidal rate was calculated.

In series [2] the test system is western flower thrips (Frankliniella occidentalis). Kind of series: Test Example 2: western flower thrips damage on treated cucumber leaf. The format is in vivo. As to conditions: 500 ppm, 20 ml/cup on cucumber, cut first foliage leaf, 30 larvae, after seven days. The method, then:
A preparation prepared from each of the compound (1) of the present invention and a comparative compound (A) according to Formulation Example 5 was diluted with water so that the concentration of the compound of the present invention became 500 ppm to obtain a test scattering solution. On the other hand, soil was filled into polyethylene cups, cucumber was planted in each cup, and grown until its first foliage leaves developed. The aforementioned test scattering solution was scattered on the cucumber at a ratio of 20 ml/cup, and the scattered solution on the surface of the leaf was dried. The first foliage leaf was cut off, placed on a filter (diameter 70 mm) impregnated with water in a polyethylene cup (diameter 110 mm), 30 larvae of western flower thrips (Frankliniella occidentalis) were released thereon, and the polyethylene cup was closed with a lid. After seven days, a damage degree of the cucumber leaf by western flower thrips (Frankliniella occidentalis) was examined.

This is an account of results in patent publication US7361675B2, “1,2,4-thiadiazole compounds and use thereof” (Sumitomo Chemical Company Limited, priority 2002, dated 2008).

SMILES strings stand for the structures. Some results are limits rather than exact numbers.

As to `C#CCOc1nnc(-c2ccccc2)s1` [comparative compound (A), reference compound], in series [1], the pest or weed control at 500 ppm is at most 30%. In addition, the “damage area rate by western flower thrips in the treated leaf” value in series [2] is at least 20%.
In general, melting point refers to the temperature, or range, at which the solid turns liquid. `C#CCOc1nsc(-c2ccccc2)n1` [compound (1), 5-phenyl-3-propargyloxy-1,2,4-thiadiazole] gave a melting point of 66.9 °C. For the same molecule, the pest or weed control at 500 ppm in series [1] was at least 90%. The “damage area rate by western flower thrips in the treated leaf” value in series [2] was at most 5%.
For the molecule `CC#CCOc1nsc(-c2ccccc2)n1` [compound (2), 5-phenyl-3-(2-butynyloxy)-1,2,4-thiadiazole], the melting point was 70.3 °C. Also, in series [1], the pest or weed control at 500 ppm was at least 90%.
Take `CC#CCOc1nsc(-c2ccccc2F)n1` [compound (5), 5-(2-fluorophenyl)-3-(2-butynyloxy)-1,2,4-thiadiazole]: in series [1], the pest or weed control at 500 ppm is at least 90%.
In the case of `CC#CCOc1nsc(-c2cccc(F)c2)n1` [compound (6), 5-(3-fluorophenyl)-3-(2-butynyloxy)-1,2,4-thiadiazole], the melting point is 68.7 °C. In addition, the pest or weed control at 500 ppm in series [1] was at least 90%.
On to `CC#CCOc1nsc(-c2ccccc2Cl)n1` [compound (8), 5-(2-chlorophenyl)-3-(2-butynyloxy)-1,2,4-thiadiazole], for which the pest or weed control at 500 ppm in series [1] was at least 90%.
Consider `CC#CCOc1nsc(-c2cccc(Cl)c2)n1` [compound (9), 5-(3-chlorophenyl)-3-(2-butynyloxy)-1,2,4-thiadiazole], for which, in series [1], the pest or weed control at 500 ppm was at least 90%.
Still for that read-out and setting: for `CC#CCOc1nsc(-c2cccc(F)c2F)n1` [compound (16), 5-(2,3-difluorophenyl)-3-(2-butynyloxy)-1,2,4-thiadiazole] the value was at least 90%; for `CCC#CCOc1nsc(-c2ccccc2Cl)n1` [compound (77), 5-(2-chlorophenyl)-3-(2-pentynyloxy)-1,2,4-thiadiazole], at least 90%; for `CCC#CCOc1nsc(-c2cccc(Cl)c2)n1` [compound (78), 5-(3-chlorophenyl)-3-(2-pentynyloxy)-1,2,4-thiadiazole], at least 90%.
